Experimental data published in ChEMBL document CHEMBL4699412, “Understanding the mechanism of action of pyrrolo[3,2-b]quinoxaline-derivatives as kinase inhibitors” (RSC Med Chem, 2020).

What was measured:
[1] = target: Tyrosine-protein kinase BTK (Homo sapiens) (UniProt Q06187); experiment: Inhibition of wild-type human full length BTK (M1 to S659 residues) expressed in mammalian expression system at 1 uM by Kinomescan method relative to control
cells [2] = details: Homo sapiens, SU-DHL-1, 72 h
HUVEC [3] = experiment: Antiangiogenic activity against HUVEC cells assessed as reduction in tube formation incubated for 15 hrs by matrigel-based assay relative to control; format: functional, Homo sapiens
HUVEC [4] = experiment: Antiangiogenic activity against HUVEC cells assessed as reduction in total branching points incubated for 15 hrs by matrigel-based assay relative to control; format: functional, Homo sapiens
[5] = Toxicity in NOD-SCID nude mouse xenografted with human Ri1 cells assessed as swelling surrounding the area of injection at 100 mg/kg, ip; format: organism-based; details: in vivo
cells [6] = details: Homo sapiens, Ri-1, 72 h
JeKo-1 = experiment: cells; details: Homo sapiens, JeKo-1, 72 h
cells [7] = details: Homo sapiens, PCL12, 72 h
[8] = target: Tyrosine-protein kinase CSK (Homo sapiens) (UniProt P41240); experiment: Inhibition of wild-type human full length CSK (M1 to L450 residues) expressed in bacterial expression system at 1 uM by Kinomescan method relative to control
Sequence of Tyrosine-protein kinase CSK (Homo sapiens) (P41240 2-450 limits assumed): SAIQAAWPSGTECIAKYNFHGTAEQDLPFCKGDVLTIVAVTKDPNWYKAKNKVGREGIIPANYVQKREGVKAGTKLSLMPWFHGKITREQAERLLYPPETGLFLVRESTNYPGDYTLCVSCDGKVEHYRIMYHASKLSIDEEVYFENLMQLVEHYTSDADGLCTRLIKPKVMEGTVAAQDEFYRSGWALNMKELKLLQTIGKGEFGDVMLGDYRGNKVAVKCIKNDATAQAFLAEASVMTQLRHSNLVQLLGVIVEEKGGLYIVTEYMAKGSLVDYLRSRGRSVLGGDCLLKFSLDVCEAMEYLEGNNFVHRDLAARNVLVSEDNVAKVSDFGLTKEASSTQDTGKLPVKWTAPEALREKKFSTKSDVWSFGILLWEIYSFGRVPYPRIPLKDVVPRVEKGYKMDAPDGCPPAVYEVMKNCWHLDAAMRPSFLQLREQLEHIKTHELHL

[9] = target: Tyrosine-protein kinase Yes (Homo sapiens) (UniProt P07947); experiment: Inhibition of wild-type human partial length YES (T257 to L543 residues) expressed in bacterial expression system at 1 uM by Kinomescan method relative to control
Sequence of Tyrosine-protein kinase Yes (Homo sapiens) (P07947 2-543 limits assumed): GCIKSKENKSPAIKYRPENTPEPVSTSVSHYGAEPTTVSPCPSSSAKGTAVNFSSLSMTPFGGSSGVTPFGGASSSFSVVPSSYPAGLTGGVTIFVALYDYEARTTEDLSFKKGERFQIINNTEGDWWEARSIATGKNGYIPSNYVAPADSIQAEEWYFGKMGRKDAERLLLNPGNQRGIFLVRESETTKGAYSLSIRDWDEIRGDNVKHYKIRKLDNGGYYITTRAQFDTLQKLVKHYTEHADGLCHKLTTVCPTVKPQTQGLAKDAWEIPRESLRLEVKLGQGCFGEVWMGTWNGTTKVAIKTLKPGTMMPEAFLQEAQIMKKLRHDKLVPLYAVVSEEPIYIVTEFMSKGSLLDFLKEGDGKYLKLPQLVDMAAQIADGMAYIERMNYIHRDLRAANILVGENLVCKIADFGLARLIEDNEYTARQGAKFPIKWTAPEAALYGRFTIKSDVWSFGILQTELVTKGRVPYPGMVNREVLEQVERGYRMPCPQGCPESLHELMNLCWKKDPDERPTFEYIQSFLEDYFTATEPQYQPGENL

cells [10] = details: Homo sapiens, MEC1, 72 h
Maver1 = experiment: cells; details: Homo sapiens, Maver1, 72 h
Ephrin type-B receptor 4 = target: T1, Ephrin type-B receptor 4 (Homo sapiens, UniProt P54760); experiment: Inhibition of full-length human EPHB4 expressed in MEF cells assessed as autophosphorylation by sandwitch-ELISA; format: cell-based
T1 sequence (P54760 whole entry): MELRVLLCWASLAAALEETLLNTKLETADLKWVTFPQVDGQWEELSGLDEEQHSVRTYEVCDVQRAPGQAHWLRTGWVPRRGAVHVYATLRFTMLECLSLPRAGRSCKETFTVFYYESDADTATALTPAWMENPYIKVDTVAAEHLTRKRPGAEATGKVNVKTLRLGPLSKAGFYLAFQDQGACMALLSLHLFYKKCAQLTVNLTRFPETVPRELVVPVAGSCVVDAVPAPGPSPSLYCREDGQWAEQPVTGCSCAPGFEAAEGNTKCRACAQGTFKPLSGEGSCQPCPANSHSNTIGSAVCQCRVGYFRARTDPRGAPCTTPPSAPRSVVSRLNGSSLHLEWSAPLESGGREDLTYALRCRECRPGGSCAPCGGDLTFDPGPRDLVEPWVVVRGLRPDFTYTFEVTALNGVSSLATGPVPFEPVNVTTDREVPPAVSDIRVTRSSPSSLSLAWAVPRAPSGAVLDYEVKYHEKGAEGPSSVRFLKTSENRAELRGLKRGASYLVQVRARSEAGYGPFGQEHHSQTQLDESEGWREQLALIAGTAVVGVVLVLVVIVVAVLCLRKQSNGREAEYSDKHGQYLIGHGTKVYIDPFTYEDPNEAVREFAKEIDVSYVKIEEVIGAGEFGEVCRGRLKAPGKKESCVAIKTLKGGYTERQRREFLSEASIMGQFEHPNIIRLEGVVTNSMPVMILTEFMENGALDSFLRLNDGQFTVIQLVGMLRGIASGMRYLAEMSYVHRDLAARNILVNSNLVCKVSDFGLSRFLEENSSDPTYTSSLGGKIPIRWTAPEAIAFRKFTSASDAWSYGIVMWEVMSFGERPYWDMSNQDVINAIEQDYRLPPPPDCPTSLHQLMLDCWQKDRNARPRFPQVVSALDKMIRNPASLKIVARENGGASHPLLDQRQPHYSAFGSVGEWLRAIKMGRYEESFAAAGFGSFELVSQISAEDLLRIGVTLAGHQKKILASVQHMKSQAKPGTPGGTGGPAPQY

HUVEC [11] = experiment: Antiangiogenic activity against HUVEC cells assessed as reduction in total loops incubated for 15 hrs by matrigel-based assay relative to control; format: functional, Homo sapiens
[12] = Toxicity in NOD-SCID nude mouse xenografted with human Ri1 cells assessed as body weight loss at 100 mg/kg, ip; format: organism-based; details: in vivo
[13] = target: T2, Ephrin type-A receptor 3 (Homo sapiens) (UniProt P29320); experiment: Binding affinity to EPHA3 (unknown origin) assessed as increase in change in melting temperature by differential scanning fluorimetric analysis
T2 sequence (whole entry): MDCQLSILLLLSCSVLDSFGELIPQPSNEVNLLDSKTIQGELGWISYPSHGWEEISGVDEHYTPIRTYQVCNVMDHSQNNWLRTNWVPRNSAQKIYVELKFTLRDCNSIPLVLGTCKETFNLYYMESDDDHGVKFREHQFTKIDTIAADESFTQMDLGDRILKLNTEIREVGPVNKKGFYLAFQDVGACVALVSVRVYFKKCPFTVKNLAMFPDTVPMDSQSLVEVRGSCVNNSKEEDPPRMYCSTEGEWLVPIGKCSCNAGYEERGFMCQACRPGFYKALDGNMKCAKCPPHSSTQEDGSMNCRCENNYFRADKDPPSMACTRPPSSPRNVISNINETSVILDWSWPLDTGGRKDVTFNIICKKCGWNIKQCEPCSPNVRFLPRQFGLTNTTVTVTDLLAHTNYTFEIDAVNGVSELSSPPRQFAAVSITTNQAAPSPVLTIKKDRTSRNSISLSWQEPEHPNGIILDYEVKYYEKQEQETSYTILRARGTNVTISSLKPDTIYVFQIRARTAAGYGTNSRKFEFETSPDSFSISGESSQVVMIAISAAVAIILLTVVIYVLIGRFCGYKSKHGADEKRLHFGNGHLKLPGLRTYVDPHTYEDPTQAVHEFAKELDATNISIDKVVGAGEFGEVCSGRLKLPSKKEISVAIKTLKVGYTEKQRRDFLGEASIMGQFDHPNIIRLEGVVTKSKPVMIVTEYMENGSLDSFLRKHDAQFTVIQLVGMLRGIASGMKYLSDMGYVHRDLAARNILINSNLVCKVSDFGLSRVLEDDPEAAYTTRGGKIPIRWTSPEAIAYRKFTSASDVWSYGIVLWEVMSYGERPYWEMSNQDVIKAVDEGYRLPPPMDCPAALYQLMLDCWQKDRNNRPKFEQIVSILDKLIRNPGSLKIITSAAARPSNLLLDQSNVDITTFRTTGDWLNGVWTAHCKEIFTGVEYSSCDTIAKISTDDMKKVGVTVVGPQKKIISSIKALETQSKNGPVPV

[14] = target: Tyrosine-protein kinase Lyn (Homo sapiens) (UniProt P07948); experiment: Inhibition of wild-type human partial length LYN (C219 to Q511 residues) expressed in bacterial expression system at 1 uM by Kinomescan method relative to control
Sequence of Tyrosine-protein kinase Lyn (Homo sapiens) (P07948 2-512 limits assumed): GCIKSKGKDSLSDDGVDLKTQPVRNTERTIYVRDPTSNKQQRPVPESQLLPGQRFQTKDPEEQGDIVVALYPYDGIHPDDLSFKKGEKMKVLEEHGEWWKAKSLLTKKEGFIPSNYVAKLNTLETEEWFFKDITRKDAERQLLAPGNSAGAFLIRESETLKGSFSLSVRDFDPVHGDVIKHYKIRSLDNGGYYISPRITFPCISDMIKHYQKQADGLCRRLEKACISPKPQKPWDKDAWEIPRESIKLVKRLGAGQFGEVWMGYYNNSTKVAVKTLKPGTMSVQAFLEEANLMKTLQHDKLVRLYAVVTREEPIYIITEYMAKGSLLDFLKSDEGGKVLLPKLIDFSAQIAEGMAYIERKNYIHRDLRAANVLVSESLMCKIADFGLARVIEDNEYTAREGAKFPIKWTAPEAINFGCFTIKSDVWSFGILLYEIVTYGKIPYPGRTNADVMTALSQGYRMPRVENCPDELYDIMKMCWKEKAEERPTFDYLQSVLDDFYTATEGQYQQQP

[15] = Antitumor activity against human Ri1 cells xenografted in NOD-SCID mouse assessed as fold change in tumor size at 100 mg/kg, ip administered for 2 weeks by caliper method relative to control; format: functional, Ri-1
[16] = Toxicity in NOD-SCID nude mouse xenografted with human Ri1 cells assessed as body weight loss at 100 mg/kg, ip once every 5 days; details: in vivo, 360 h

Sequence of Tyrosine-protein kinase BTK (Homo sapiens) (Q06187 whole entry, the tested form may be a part): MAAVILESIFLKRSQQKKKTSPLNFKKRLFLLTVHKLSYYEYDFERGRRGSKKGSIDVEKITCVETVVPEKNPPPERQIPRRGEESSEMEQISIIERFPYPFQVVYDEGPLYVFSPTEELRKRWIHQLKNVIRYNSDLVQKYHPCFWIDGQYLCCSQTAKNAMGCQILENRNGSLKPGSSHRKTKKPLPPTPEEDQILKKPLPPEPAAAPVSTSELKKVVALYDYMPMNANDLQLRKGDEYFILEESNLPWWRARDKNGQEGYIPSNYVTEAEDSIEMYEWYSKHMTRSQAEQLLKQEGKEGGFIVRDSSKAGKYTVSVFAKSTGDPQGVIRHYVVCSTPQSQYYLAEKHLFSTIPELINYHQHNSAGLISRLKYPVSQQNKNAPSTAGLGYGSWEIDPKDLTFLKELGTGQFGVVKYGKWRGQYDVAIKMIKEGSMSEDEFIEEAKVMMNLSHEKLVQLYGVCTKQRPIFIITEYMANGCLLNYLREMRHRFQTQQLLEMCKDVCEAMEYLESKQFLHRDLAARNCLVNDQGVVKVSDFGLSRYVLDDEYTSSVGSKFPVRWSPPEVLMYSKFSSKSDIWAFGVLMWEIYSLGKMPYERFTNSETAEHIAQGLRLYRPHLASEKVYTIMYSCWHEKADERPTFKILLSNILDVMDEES

| SMILES | % control [1] [%] | IC50 (cells [2]) [nM] | inhibition (INH) (HUVEC [3]) [%] | inhibition (INH) (HUVEC [4]) [%] | Activity [5] | IC50 (cells [6]) [nM] | IC50 (JeKo-1) [nM] | IC50 (cells [7]) [nM] | % control [8] [%] | % control [9] [%] | IC50 (cells [10]) [nM] | IC50 (Maver1) [nM] | EC50 (Ephrin type-B receptor 4) [nM] | inhibition (INH) (HUVEC [11]) [%] | Activity [12] | ΔTm [13] [°C] | % control [14] [%] | fold change (FC) [15] | Activity [16] |
| --- | --- | --- | --- | --- | --- | --- | --- | --- | --- | --- | --- | --- | --- | --- | --- | --- | --- | --- | --- |
| Cc1ccc(-n2nc(C(C)(C)C)cc2NC(=O)Nc2ccc(-n3c(N)c(C(N)=O)c4nc5ccccc5nc43)cc2)cc1 | 0.95 | 600 | 65 | 90 | Toxic | 600 | 600 | 600 | 0.9 | 9.6 | 600 | 600 | 360 | 100 | Toxic | 17.3 | 0.85 |  |  |
| Cc1ccc(-n2nc(C(C)(C)C)cc2NC(=O)Nc2ccc(-n3c(N)c(C(N)=O)c4nc5ccc(NCCCN)cc5nc43)cc2)cc1 | 3.3 |  |  |  |  |  |  |  | 0.65 | 1.9 |  |  |  |  |  |  | 0.5 |  |  |
| CC(C)(C)c1cc(NC(=O)Nc2ccc(-n3c(N)c(C(N)=O)c4nc5ccccc5nc43)cc2)n(-c2ccc3ncccc3c2)n1 |  | 250 |  |  |  | 250 | 250 | 250 |  |  | 250 | 250 | 1100 |  |  | 19.3 |  | 3 | Non-Toxic |
